Laboratory results published in patent publication US4977275A, “Pyrrole derivatives” (SS Pharmaceutical Co., Ltd., priority 1988, dated 1990).
In brackets after ≈: the same amount, converted by molar mass.

Assays:
Type in all cases: cell-based
[1] = test system: Bacillus subtilis ATCC 6633; assay: antimicrobial activity, minimum inhibitory concentration; conditions: ATCC6633
[2] = test system: Staphylococcus aureus FDA 209P; assay: as above; conditions: FDA209P
[3] = test system: Candida albicans NHL 4019; assay: as above; conditions: NHL4019
Candida albicans Yu-1200 = assay: as above; conditions: YU1200
[4] = test system: Saccharomyces cerevisiae ATCC 9763; assay: as above; conditions: ATCC9763
[5] = test system: Helminthosporium sesamum IAM 5012; assay: as above; conditions: IAM5012
[6] = test system: Piricularia oryzae IAM 5016; assay: microbe, parasite or virus in culture; conditions: read-out: Minimum inhibitory concentration (MIC)
[7] = test system: Debaryomyces kloeckeri IFO 0015; assay: antimicrobial activity, minimum inhibitory concentration; conditions: IFO0015

| SMILES | MIC [1] | MIC [2] | MIC [3] | MIC (Candida albicans Yu-1200) | MIC [4] | MIC [5] | MIC [6] | MIC [7] |
| --- | --- | --- | --- | --- | --- | --- | --- | --- |
| O=C(CCCl)Oc1ccccc1C(=O)c1[nH]c(Cl)c(Cl)c1I [Compound 9, 2-[2-(3-Chloropropionyloxy)benzoyl]-3-iodo-4,5-dichloropyrrole] | < 0.2 µg/mL | < 0.2 µg/mL | 6.25 µg/mL (≈ 13.2 µM) | 6.25 µg/mL (≈ 13.2 µM) | 12.5 µg/mL (≈ 26.5 µM) | 6.25 µg/mL (≈ 13.2 µM) | < 0.2 µg/mL | 12.5 µg/mL (≈ 26.5 µM) |
| CCCCCCC(=O)Oc1ccccc1C(=O)c1[nH]c(Cl)c(Cl)c1I [Compound 6, 2-(2-heptanoyloxybenzoyl)-3-iodo-4,5-dichloropyrrole] | 0.39 µg/mL (≈ 0.789 µM) | 0.39 µg/mL (≈ 0.789 µM) | 12.5 µg/mL (≈ 25.3 µM) | 12.5 µg/mL (≈ 25.3 µM) | 12.5 µg/mL (≈ 25.3 µM) | 6.25 µg/mL (≈ 12.6 µM) | < 0.2 µg/mL | 12.5 µg/mL (≈ 25.3 µM) |
| CCCCCCC(=O)Oc1ccc(F)cc1C(=O)c1[nH]c(Br)c(Br)c1Br [Compound 2, 2-(2-Heptanoyloxy-5-fluorobenzoyl)-3,4,5-tribromopyrrole] | < 0.2 µg/mL | < 0.2 µg/mL | 12.5 µg/mL (≈ 22.6 µM) | 12.5 µg/mL (≈ 22.6 µM) | 12.5 µg/mL (≈ 22.6 µM) | 6.25 µg/mL (≈ 11.3 µM) | < 0.2 µg/mL | 12.5 µg/mL (≈ 22.6 µM) |
